The source of these data is PubChem BioAssay AID1996.

Converted amounts (≈) assume the structure as drawn.

For this series the following is noted: buffer; pH 7.4; 200.0 µM.
As for `O=S(=O)(c1ccc2oc(=S)[nH]c2c1)N1CCOCC1`, the solubility (kinetic) (as a rule, the concentration staying in solution when a stock, usually in DMSO, is diluted into the medium) is above 45.1 µg/mL.

`Cc1ccccc1NC(=O)COC(=O)CCSc1ccccc1`: the kinetic solubility amounted to 13.1 µg/mL (≈ 39.8 µM).

On to `CC1CCN(C(=O)CN2C(=O)COc3ccc(Cl)cc32)CC1`, for which the kinetic solubility is above 48.4 µg/mL.

Consider `CCN(C(=O)COC(=O)c1ccc(Cl)cc1N)C1CCCCC1`, for which the solubility (kinetic) was 2.7 µg/mL (≈ 7.97 µM).

`C=CCN1C(=O)C2(OCCCO2)c2c(C)ccc(C)c21` yielded a kinetic solubility of 28.2 µg/mL (≈ 103 µM).

Take `O=C(CSc1nc2ccccc2c(=O)n1-c1ccccc1F)N1CCOCC1`: the kinetic solubility amounted to 54.3 µg/mL (≈ 136 µM). Against the preceding compound, the solubility kinetic is about 1.9-fold higher.

On to `COC(=O)c1sccc1NC(=O)CSCCc1ccccn1`, for which the kinetic solubility was above 50.5 µg/mL.

Compound `Cc1ccc(O)c(NC(=O)c2cc(-c3ccccc3)on2)c1` displayed a kinetic solubility below 0.3 µg/mL.

The compound `O=C(CSCc1ccccc1)NCCc1ccc(F)cc1` registered a solubility (kinetic) of 41.5 µg/mL (≈ 137 µM).

Regarding `CCOC(=O)C1CCCN(CC(=O)Nc2nccs2)C1` (stereo not drawn), the kinetic solubility was above 44.6 µg/mL.

Take `Cc1ccn2cc(-c3cccc(NC(=O)CCC(=O)O)c3)nc2c1`: the solubility (kinetic) is above 48.5 µg/mL.

Take `CC(C)(C)c1ccccc1NC(=O)CN1C(=O)NC2(CCCC2)C1=O`: the solubility (kinetic) is 6.1 µg/mL (≈ 17.8 µM).

Compound `Cc1cc(N2CCCC2=O)ccc1S(=O)(=O)NC1CCCCC1` returned a kinetic solubility of 29.3 µg/mL (≈ 87.1 µM).

`CCN(CC)CCCNC(=O)/C=C/C(=O)O` gave a solubility (kinetic) of 31.2 µg/mL (≈ 137 µM). This solubility kinetic and that of the compound before are within 1.5-fold of each other.

Take `CC(=O)N1CCN(c2ccc(NC(=O)c3ccccc3C)cc2)CC1`: the solubility (kinetic) came to 36.8 µg/mL (≈ 109 µM). The solubility kinetic values of the last two compounds are within 1.5-fold of each other.

The compound `Cc1ccc(OCC(=O)NCC2CCCO2)c(C)c1` (stereo not drawn) gave a kinetic solubility above 39.5 µg/mL.

`COCCCNC(=O)Cc1ccc(-n2c(C)nc3cccnc32)cc1` gave a kinetic solubility above 50.8 µg/mL.

The compound `CC(C)C(=O)O/N=C1\CCS(=O)(=O)c2sccc21` returned a kinetic solubility above 43.1 µg/mL.

Compound `Cc1c[n+](CC(=O)c2ccccc2)cs1.[Br-]` displayed a kinetic solubility of 44.3 µg/mL.

Compound `COc1ccccc1C(=O)NC(=O)CSc1nnc2ccccn12` yielded a kinetic solubility above 51.4 µg/mL.

On to `Cc1ccccc1C(=O)Nc1ccc2nc3n(c(=O)c2c1)CCCC3`, for which the solubility (kinetic) turned out to be 37.5 µg/mL (≈ 112 µM).

In the case of `CCC(C)Nc1nc(-c2ccccn2)nc2ccccc12` (stereo not drawn), the kinetic solubility was above 41.8 µg/mL.

`CCOc1ccc(N=C2NC(=O)SC2CC(=O)OC)cc1` (stereo not drawn) gave a kinetic solubility of 12.4 µg/mL (≈ 40.2 µM).

The compound `CC(=O)Nc1ccc(-c2csc(-c3cccnc3)n2)cc1` gave a kinetic solubility of 5.9 µg/mL (≈ 20 µM).

In the case of `CC(C)CC(C)NC(=O)c1ccc(C(F)(F)F)cc1` (stereo not drawn), the solubility (kinetic) turned out to be 4.9 µg/mL (≈ 17.9 µM).

The compound `O=C(CNC(=O)c1cccs1)OCc1c(F)cccc1Cl` came in with a kinetic solubility of 42.4 µg/mL (≈ 129 µM).

Turning to `CN(C)CCNC(=O)c1sc2cccc(F)c2c1Cl`, the solubility (kinetic) was 40.1 µg/mL (≈ 133 µM).

In turn, `c1cnc(N2CCN(c3ccc4ccccc4n3)CC2)nc1` gave a solubility (kinetic) of 1.3 µg/mL (≈ 4.46 µM).

Turning to `CNc1nc(C)c([N+](=O)[O-])c(Nc2ccc(OC)cc2)n1`, the kinetic solubility is 0.5 µg/mL (≈ 1.73 µM).

Regarding `Cc1ccc(NC(=O)c2ccc3c(c2)NC(=O)CS3)nc1`, the solubility (kinetic) stood at 5.3 µg/mL (≈ 17.7 µM).

Consider `OCCCc1cn(-c2ccccc2)c2ccccc12`, for which the solubility (kinetic) was 22.1 µg/mL (≈ 87.9 µM).

In turn, `COc1ccccc1CNC(=O)C(c1ccccc1)c1ccccc1` came in with a solubility (kinetic) below 0.7 µg/mL.

As for `S=C(Nc1ccc2c(c1)OCO2)Nc1ccccc1Cl`, the kinetic solubility amounted to 32.5 µg/mL (≈ 106 µM).

In the case of `O=C(CC(c1ccccc1)c1ccccc1)NCCOCc1ccccc1`, the solubility (kinetic) turned out to be 20.1 µg/mL (≈ 55.9 µM).

Consider `O=C(Nc1ccc(F)c(Cl)c1)c1cncs1`, for which the solubility (kinetic) is above 38.5 µg/mL.

On to `NC(=S)c1c(Cl)cc(C(F)(F)F)cc1Cl`, for which the solubility (kinetic) was determined as 40.6 µg/mL (≈ 148 µM).

Consider `O=C(NCCc1c[nH]c2ccccc12)/C(=C/c1cccnc1)NC(=O)c1ccco1`, for which the solubility (kinetic) is above 60.1 µg/mL.

Turning to `COc1cc2ncnc(NCc3ccc(F)cc3)c2cc1OC`, the solubility (kinetic) is above 47 µg/mL.

In turn, `O=C(O)c1cccnc1SCc1cccc(Cl)c1` yielded a kinetic solubility of 41.5 µg/mL (≈ 148 µM).

`O=C(NC(=S)NCc1cccnc1)c1ccccc1F` showed a kinetic solubility above 43.4 µg/mL.

The compound `O=C(O)c1ccccc1-c1ccccc1C(=O)Nc1ccc(OC(F)(F)F)cc1` displayed a solubility (kinetic) above 60.2 µg/mL.

Turning to `N#CCc1ccc(OC(=O)Nc2ccccc2)cc1`, the kinetic solubility was determined as 36.4 µg/mL (≈ 144 µM).

Turning to `C=CCn1c(O)c(/C=C2/C=c3ccccc3=N2)c(=O)[nH]c1=S`, the kinetic solubility stood at 1.2 µg/mL (≈ 3.85 µM). This solubility kinetic is about 30-fold lower than that of the compound before.

Compound `CCOC(=O)N1CCN(C(=O)CCc2ccc(S(=O)(=O)NCC(C)C)cc2)CC1` returned a kinetic solubility of 59.6 µg/mL (≈ 140 µM).

Compound `Cl.N#C/C(=C/c1cc(Cl)c(O)c(Cl)c1)C(=O)N1CCCCC1` yielded a kinetic solubility above 54.2 µg/mL.

With `Cc1c(C(=O)O)cc(C(C)(C)C)n1CCSCCO`, the kinetic solubility is 38.8 µg/mL (≈ 136 µM).

For `Cc1ccccc1-c1cn(-c2ccccc2)c(=S)[nH]1`, the solubility (kinetic) was found to be 6.2 µg/mL (≈ 23.3 µM). This solubility kinetic is about 6.3-fold lower than that of the compound before.

With `CC1(C)CC(NC(=O)c2ccc(Br)o2)CC(C)(C)N1`, the solubility (kinetic) is above 49.4 µg/mL.

`O=C(NC1=NCCS1)c1ccc(C(F)(F)F)cc1` showed a solubility (kinetic) of 6.1 µg/mL (≈ 22.2 µM).

As to `COc1ccc(N=C2CCS(=O)(=O)c3sccc32)cc1`, the kinetic solubility is above 46.1 µg/mL.

On to `Oc1ccccc1-c1nc(NC2CCCC2)c2ccccc2n1`, for which the kinetic solubility was below 0.2 µg/mL.

`O=C(COc1ccccc1)NCC1COc2ccccc2O1` (stereo not drawn) returned a solubility (kinetic) of 44.8 µg/mL (≈ 150 µM).

`Cc1ccc(C(=O)Nc2cccnc2Cl)cc1Cl` gave a solubility (kinetic) of 32.9 µg/mL (≈ 117 µM).
